The sequences below were run on hMSCs (assay: STRO-1 stemness marker expression in hMSCs (immunostaining, ImageJ quantification)). Conditions: SEQ ID NO: 1 to 49 tested in combination with a bioactive carrier (titanium, ceramics, PEEK, hydrogel, etc.).
Assay type: cell-based, Human
Description: The cells were first fixed for 20 min with 4% paraformaldehyde/PBS at 4° C. After fixation, the cells were permeabilized in PBS containing 1% Triton X-100 for 15 min. Runx2, Osterix, Stro-1, Vinculin, Phalloidin, Osteopontin, Sox2, Sox9 antibodies were visualized by treating the cells with 1% (v/v) specific monoclonal antibodies for 1 hour at 37° C. Then the samples were incubated with Alexa fluor® 568 or 647 (F(ab′)2 fragment of IgG(H+L)) during 30 min at room temperature. The cell nuclei were counterstained in 20 ng/mL DAPI for 10 min at room temperature.
For this type of quantification the freeware image analysis ImageJ® software was used. The raw image was first converted to an 8-bit file, and then the unsharp mask feature was used (settings 1:0.2) to remove the image background (rolling ball radius 10). After smoothing, the resulting image, which appears similar to the original photomicrograph but with minimal background, was then converted to a binary image by setting a threshold. Threshold values were determined empirically by selecting a setting, which gave the most accurate binary image for a subset of randomly selected photomicrographs. The cell area was determined by manual delineation on raw fluorescent images. Total contact area and mean contact area per cell were calculated by “analyse particles” in ImageJ®. A minimum of 30 cells per condition were analyzed. Stro-1, CD-34+, and CD-105 expressions were determined using this procedure.
hMSCs were cultured on conventional cell culture plastic plates with or without the presence in the cell culture media of different GFR-binding compounds as defined hereins (SEQ ID NO: 50 to 104) in solution. […] This was probed by Stro-1 immunostaining after cell fixation as described in the Methods section. The quantification of Stro-1 positive contact numbers and areas was performed as described in the Methods section. A minimum of 30 cells per condition were analyzed.
RMSD values are always calculated for a GFR-binding peptide sequence exempt from any bioactive-carrier-affinity-containing group as defined herein (e.g. cysteine, WWFWG, GTPGP, etc. . . . ). When needed i.e. when attachment to a bioactive carrier is contemplated, the bioactive-carrier-affinity-containing group is then present in the GFR-binding compound when it is biologically tested. Using the method detailed in the description, the RMSD of 57 previously reported peptide sequences have been determined (Table 6) and correlated with the expression of STRO-1 after grafted on a PET surface via a procedure as already described above. […] One should note that it is commonly admitted that the expression of STRO-1 in a cell is indicative of a cell that is in a substantially non-differentiated state and the decrease of its expression of at least about 20% is indicative of a cell that has started a processes of differentiation but which may not result in the differentiation of the cell. A decrease of more than 50% would be indicative of the presence of a significant shift towards a differentiated state. A decrease of more than 70% would be indicative of the presence of a very important shift towards a differentiated state. A sustained decrease (e.g. for at least 96 h) of more than 50% or 70% would be indicative of the presence of an even more important shift towards a differentiated state.
Likewise, using the method detailed in the description, the RMSD of 87 GFR-binding peptide sequence representatives of the invention have been determined (Table 7) and correlated with the expression of STRO-1 after grafted on a PET surface via a procedure as already described above. SEQ ID NO: 1 to 49 were tested in combination with a bioactive carrier as defined above in the Examples Section (i.e. titanium, ceramics, PEEK, hydrogel, etc. . . . ), whereas SEQ ID NO: 1143 to 1180 were tested in solution.

| Sequence | STRO-1 expression [%] |
| --- | --- |
| KIPKASSVPTELSATSVLYY [SEQ ID NO: 6] | 25 |
| KVGKASSVPTKLEPLTILYY [SEQ ID NO: 13] | 26 |
| KVGKASSVPTKLSAISMLYL [SEQ ID NO: 20] | 19 |
| KVGKASSVSQKLEPLTILYY [SEQ ID NO: 10] | 32 |
| NDEGLESAPTEENAISVLYF [SEQ ID NO: 4] | 22 |
| NDEGLESAPTGQNAISVLYF [SEQ ID NO: 5] | 27 |
| NDEGLESVPTGQNAISVLYF [SEQ ID NO: 17] | 31 |
| RNVQSRPTQVQLNAISVLYF [SEQ ID NO: 11] | 24 |
| RNVQSRPTQVQLSAISMLYL [SEQ ID NO: 14] | 16 |
| RVPSTSSVPAKTSPISILYI [SEQ ID NO: 43] | 15 |

Same assay, conditions: SEQ ID NO: 1 to 49 tested in combination with a bioactive carrier (titanium, ceramics, PEEK, hydrogel, etc.), listed as 45

| Sequence | STRO-1 expression [%] |
| --- | --- |
| NDEGLESVPAEESPISILYI [SEQ ID NO: 45] | 16 |

Same assay, conditions: SEQ ID NO: 1 to 49 tested in combination with a bioactive carrier (titanium, ceramics, PEEK, hydrogel, etc.), listed as 47

| Sequence | STRO-1 expression [%] |
| --- | --- |
| NDEGLESVPAEESPISILYI [SEQ ID NO: 47] | 18 |

Same assay, conditions: SEQ ID NO: 1143 to 1180 tested in solution

| Sequence | STRO-1 expression [%] |
| --- | --- |
| KIPKASSSRVRLSSLSTLFF (GFR-binding peptide) [SEQ ID NO: 1157] | 20 |
| KIPKASSTPTRLSPISMLFI (GFR-binding peptide) [SEQ ID NO: 1163] | 28 |
| KIPKASSTQVGQSATSILYY (GFR-binding peptide) [SEQ ID NO: 1161] | 27 |
| KIPKASSTQVRLRPVQIRKI (GFR-binding peptide) [SEQ ID NO: 1153] | 30 |
| KIPKASSTQVRLRSVKTAKV (GFR-binding peptide) [SEQ ID NO: 1178] | 35 |
| KIPKASSVPAQLEPLPIVYY (GFR-binding peptide) [SEQ ID NO: 1171] | 28 |
| KIPKASSVPTGGSNITVQIM (GFR-binding peptide) [SEQ ID NO: 1151] | 32 |
| KIPKASSVPTKMKPLSVLYV (GFR-binding peptide) [SEQ ID NO: 1168] | 21 |
| KIPKASSVSQKMEPLTMLYY (GFR-binding peptide) [SEQ ID NO: 1150] | 20 |
| KIPKASSVSQQLEPISTLYL (GFR-binding peptide) [SEQ ID NO: 1165] | 17 |
| NDEGLESVPEDLSSLSVLFF (GFR-binding peptide) [SEQ ID NO: 1143] | 23 |
| RVPSTSSAPTKMKPLSMLYV (GFR-binding peptide) [SEQ ID NO: 1169] | 22 |
| RVPSTSSAPTKMNAISMLYF (GFR-binding peptide) [SEQ ID NO: 1145] | 23 |
| RVPSTSSTQVDLNAISVLYF (GFR-binding peptide) [SEQ ID NO: 1159] | 23 |
| RVPSTSSTQVKMSAISMLYL (GFR-binding peptide) [SEQ ID NO: 1155] | 17 |
| RVPSTSSVPAEESNITVQIM (GFR-binding peptide) [SEQ ID NO: 1176] | 26 |
| RVPSTSSVPEKMEPLTMLYY (GFR-binding peptide) [SEQ ID NO: 1173] | 18 |
| RVPSTSSVPTGQSAISTLYL (GFR-binding peptide) [SEQ ID NO: 1144] | 19 |

Same assay, conditions: grafted on a PET surface

| Sequence | STRO-1 expression [%] |
| --- | --- |
| KIPKPSSAPTELSAISMC (Previously reported sequence) [SEQ ID NO: 1129, reference compound] | 78 |
| KIPKPSSAPTELSAISMLC (Previously reported sequence) [SEQ ID NO: 1132, reference compound] | 82 |
| KIPKPSSAPTELSAISMLYC (Previously reported sequence) [SEQ ID NO: 1133, reference compound] | 80 |
| KPCCAPTELSAISVLYFDDSSNVILKKYRNMVVRACGCR (Previously reported sequence) [SEQ ID NO: 1142, reference compound] | 83 |
| KPCCAPTQLSAISVLYFDDSSNVILKKYRNMVVRACGCR (Previously reported sequence) [SEQ ID NO: 1141, reference compound] | 80 |
| LGIAAIIFLQQVPAAFSATSPPG (Previously reported sequence) [SEQ ID NO: 1113, reference compound] | 97 |
| LMDLARMPSCLRGERAVPQDTTGYFTWSSNITPLNFIF (Previously reported sequence) [SEQ ID NO: 1093, reference compound] | 92 |
| LNEVLRFCGIQVPEGDEPLTY (Previously reported sequence) [SEQ ID NO: 1095, reference compound] | 99 |
| LSLLAPPEPVWNHETSYGSDCHVPTNVNAISKMIDKSNHQTG (Previously reported sequence) [SEQ ID NO: 1125, reference compound] | 93 |
| MAAQDEWRDAITLTMGRDLKKVPQHLNAISVIDPVT (Previously reported sequence) [SEQ ID NO: 1124, reference compound] | 83 |
| MALPQPRGSSLSKAPVVVAPCMALKRVNIRSIVFEVLKTMNQNCIHETPN (Previously reported sequence) [SEQ ID NO: 1123, reference compound] | 82 |
| MQCRELVTQVTEEPISQTEDGEEQESTTTPRLKGQKKE (Previously reported sequence) [SEQ ID NO: 1104, reference compound] | 85 |
| MRTESTPTTASAISYECLWSPPSNEAAKLHFDS (Previously reported sequence) [SEQ ID NO: 1137, reference compound] | 94 |
| MSRVLFEPLTFLQTGSGLPDEKTLG (Previously reported sequence) [SEQ ID NO: 1096, reference compound] | 94 |
| NEVLRFCGIQVPEGDEPLT (Previously reported sequence) [SEQ ID NO: 1094, reference compound] | 98 |
| NPGASASPCCVSQDLEPLPIL (Previously reported sequence) [SEQ ID NO: 1098, reference compound] | 86 |
| PIIYYVGRNVRVEQLSNMVVRA (Previously reported sequence) [SEQ ID NO: 1087, reference compound] | 92 |
| PIIYYVGRNVRVEQLSNMVVRRA (Previously reported sequence) [SEQ ID NO: 1088, reference compound] | 98 |
| PNYSVPAGNKPLSERE (Previously reported sequence) [SEQ ID NO: 1100, reference compound] | 95 |
| SATSRLALSDVPAELAA (Previously reported sequence) [SEQ ID NO: 1112, reference compound] | 98 |
| SFRTARANAPTGRSSLSGEKEQQEASTHS (Previously reported sequence) [SEQ ID NO: 1120, reference compound] | 91 |
| SHQSAGDSIKSPARHSAPTHQEPLPD (Previously reported sequence) [SEQ ID NO: 1099, reference compound] | 91 |
| SPISILVVPELDASLPEKRPSLDGFEALLVYNAPKA (Previously reported sequence) [SEQ ID NO: 1106, reference compound] | 82 |
